Laboratory results from US11072612B2, “NLRP3 modulators” (INNATE TUMOR IMMUNITY, INC., priority 2016, dated 2021).

What was measured:
Assay type in all cases: cell-based
TLR8 = target: T1, TLR8 (Homo sapiens, UniProt Q9NR97); assay: TLR8 EC50 assay; conditions: Table 2
T1 sequence (Q9NR97 27-1041): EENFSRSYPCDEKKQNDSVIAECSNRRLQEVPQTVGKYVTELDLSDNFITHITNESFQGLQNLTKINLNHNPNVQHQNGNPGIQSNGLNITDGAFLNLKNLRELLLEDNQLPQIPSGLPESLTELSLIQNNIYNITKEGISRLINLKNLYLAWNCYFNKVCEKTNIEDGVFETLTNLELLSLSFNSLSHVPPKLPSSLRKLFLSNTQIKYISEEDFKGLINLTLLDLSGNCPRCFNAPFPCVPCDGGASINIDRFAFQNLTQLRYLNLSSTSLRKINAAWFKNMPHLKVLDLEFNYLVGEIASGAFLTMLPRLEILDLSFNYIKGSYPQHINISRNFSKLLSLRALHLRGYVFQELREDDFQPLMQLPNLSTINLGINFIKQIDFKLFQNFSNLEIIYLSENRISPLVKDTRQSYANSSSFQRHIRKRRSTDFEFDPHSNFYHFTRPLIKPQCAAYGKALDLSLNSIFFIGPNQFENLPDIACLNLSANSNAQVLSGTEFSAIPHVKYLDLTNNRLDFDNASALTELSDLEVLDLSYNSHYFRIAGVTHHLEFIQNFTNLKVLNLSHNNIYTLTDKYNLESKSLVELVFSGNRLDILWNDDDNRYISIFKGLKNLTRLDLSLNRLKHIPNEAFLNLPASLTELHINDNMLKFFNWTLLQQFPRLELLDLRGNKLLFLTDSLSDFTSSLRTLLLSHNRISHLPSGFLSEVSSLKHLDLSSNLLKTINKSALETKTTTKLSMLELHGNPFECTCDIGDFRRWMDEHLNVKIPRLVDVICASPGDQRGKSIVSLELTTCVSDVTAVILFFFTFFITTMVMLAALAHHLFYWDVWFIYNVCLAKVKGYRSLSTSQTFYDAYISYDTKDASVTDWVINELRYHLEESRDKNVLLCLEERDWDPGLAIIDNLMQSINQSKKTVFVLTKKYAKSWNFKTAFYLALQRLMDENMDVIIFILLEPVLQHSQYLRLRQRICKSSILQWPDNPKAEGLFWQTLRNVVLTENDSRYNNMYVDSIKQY

hNLRP3 = target: T2, hNLRP3 (Homo sapiens, UniProt Q96P20); assay: hNLRP3 agonist assay: IL-1β production in PMA-differentiated THP-1 cells (ELISA); conditions: Table 2, 4 hours, IL-1β by ELISA
T2 construct: THP-1 cells were purchased from the American Type Culture Collection; host or cells: THP-1 cells, PMA-differentiated
Protocol: THP-1 cells were purchased from the American Type Culture Collection and sub-cultured according to instructions from the supplier. Prior to experiments, cells were cultured in RPMI 1640 containing 10% heat inactivated FBS, penicillin (100 units/ml) and streptomycin (100 μg/ml), and maintained in log phase prior to experimental setup. Prior to the experiment THP-1 were treated with PMA (Phorbol 12-myristate 13-acetate) (10 μg/ml) for 24 hours. The day of the experiment the media was removed and attaching cells were treated with trypsin for 2 minutes, cells were then collected, washed with PBS (phosphate buffer saline), spin down, resuspended in 2% heat inactivated FBS with RPMI at a concentration of 1×10^6 cells/ml, and 100 μl was plated in a 96 well plate. Cells were incubated with compounds for 4 hours. Cell free supernatant was collected and the production of IL-1β was evaluated by ELISA. Compounds were dissolved in dimethyl sulfoxide (DMSO) and added to the culture medium to achieve desired concentration (e.g. 100, 30, 10, 3, 1, 0.3 or 0.1 μM). A vehicle only control was run concurrently with each experiment. Final DMSO concentration was 1%.

TLR7 = target: T3, TLR7 (Homo sapiens, UniProt Q9NYK1); assay: TLR7 EC50 assay; conditions: Table 2
T3 sequence (Q9NYK1 27-1049): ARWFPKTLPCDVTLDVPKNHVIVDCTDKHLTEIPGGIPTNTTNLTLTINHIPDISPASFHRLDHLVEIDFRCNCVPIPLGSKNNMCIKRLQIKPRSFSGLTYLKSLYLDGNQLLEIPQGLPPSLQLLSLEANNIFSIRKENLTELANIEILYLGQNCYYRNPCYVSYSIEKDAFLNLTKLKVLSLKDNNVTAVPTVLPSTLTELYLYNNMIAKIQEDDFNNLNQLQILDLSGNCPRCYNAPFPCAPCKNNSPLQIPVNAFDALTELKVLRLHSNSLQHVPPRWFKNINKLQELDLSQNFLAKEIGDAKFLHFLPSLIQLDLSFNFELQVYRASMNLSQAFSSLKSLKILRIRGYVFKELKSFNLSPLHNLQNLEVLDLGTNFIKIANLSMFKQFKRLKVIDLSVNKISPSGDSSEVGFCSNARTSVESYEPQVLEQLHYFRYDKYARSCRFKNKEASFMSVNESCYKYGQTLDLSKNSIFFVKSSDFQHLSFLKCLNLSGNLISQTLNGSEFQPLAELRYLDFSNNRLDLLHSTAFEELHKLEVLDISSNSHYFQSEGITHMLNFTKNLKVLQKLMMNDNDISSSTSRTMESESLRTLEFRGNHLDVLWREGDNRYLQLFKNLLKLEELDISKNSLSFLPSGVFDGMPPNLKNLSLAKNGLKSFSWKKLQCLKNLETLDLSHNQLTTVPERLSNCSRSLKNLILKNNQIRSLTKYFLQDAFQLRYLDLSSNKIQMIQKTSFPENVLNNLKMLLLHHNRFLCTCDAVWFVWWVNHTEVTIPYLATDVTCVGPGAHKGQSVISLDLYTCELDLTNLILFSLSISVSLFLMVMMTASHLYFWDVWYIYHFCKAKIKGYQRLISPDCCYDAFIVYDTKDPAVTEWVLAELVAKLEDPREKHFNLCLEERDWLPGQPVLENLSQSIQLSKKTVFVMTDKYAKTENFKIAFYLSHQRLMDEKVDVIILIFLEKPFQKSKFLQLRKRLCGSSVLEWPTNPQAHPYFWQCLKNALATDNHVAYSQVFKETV

T2 sequence (Q96P20 whole entry): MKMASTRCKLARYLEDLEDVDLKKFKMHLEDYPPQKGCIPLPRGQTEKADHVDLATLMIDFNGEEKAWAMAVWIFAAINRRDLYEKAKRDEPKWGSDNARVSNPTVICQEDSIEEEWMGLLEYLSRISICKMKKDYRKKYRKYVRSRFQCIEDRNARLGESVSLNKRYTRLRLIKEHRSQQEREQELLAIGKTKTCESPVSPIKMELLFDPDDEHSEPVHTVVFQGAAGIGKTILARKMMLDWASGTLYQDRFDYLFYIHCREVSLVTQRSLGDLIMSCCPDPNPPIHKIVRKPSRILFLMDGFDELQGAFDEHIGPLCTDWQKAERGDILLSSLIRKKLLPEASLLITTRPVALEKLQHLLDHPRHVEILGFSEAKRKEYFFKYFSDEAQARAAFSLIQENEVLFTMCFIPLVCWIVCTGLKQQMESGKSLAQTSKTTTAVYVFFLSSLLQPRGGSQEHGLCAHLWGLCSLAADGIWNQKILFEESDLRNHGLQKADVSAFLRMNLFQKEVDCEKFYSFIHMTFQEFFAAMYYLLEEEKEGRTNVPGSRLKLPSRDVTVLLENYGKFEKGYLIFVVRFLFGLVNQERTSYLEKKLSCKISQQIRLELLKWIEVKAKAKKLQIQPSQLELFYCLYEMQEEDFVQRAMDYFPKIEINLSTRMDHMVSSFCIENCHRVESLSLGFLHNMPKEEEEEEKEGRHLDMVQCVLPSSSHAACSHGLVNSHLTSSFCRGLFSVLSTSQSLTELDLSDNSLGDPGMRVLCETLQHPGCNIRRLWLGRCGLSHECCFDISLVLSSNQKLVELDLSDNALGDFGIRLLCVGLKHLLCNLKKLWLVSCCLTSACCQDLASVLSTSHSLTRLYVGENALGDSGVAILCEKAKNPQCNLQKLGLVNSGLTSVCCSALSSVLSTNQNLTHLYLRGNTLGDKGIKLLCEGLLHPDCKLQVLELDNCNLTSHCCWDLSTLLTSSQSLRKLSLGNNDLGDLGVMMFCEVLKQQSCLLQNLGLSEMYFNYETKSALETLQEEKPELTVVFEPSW

SMILES	EC50 (TLR8)	EC50 (hNLRP3)	EC50 (TLR7)
CC(C)(C)OC(=O)N1CCC(c2nc3c(N)nc4cc(-c5cccnc5)ccc4c3[nH]2)CC1 [Compound 221]	> 100 µM	1 to 20 µM	> 100 µM
Nc1nc2cc(NC(=O)c3ccccc3)ccc2c2[nH]c(CCCO)nc12 [Compound 180, N-[4-amino-2-(3-hydroxypropyl)-1H-imidazo[4,5-c]quinolin-7-yl]benzamide]	> 100 µM	> 100 µM	> 100 µM
COC(=O)CCn1c(CCCO)nc2c(N)nc3cc(Br)ccc3c21 [Compound 142]	> 100 µM	1 to 20 µM	> 100 µM
N#Cc1ccccc1-c1ccc2c(c1)nc(N)c1nc(CCCO)[nH]c12 [Compound 202, 2-[4-amino-2-(3-hydroxypropyl)-1H-imidazo[4,5-c]quinolin-7-yl]benzonitrile]	> 100 µM	> 100 µM	> 100 µM
CCNC(C)(C)c1nc2c(N)nc3cc(-c4cc[nH]n4)ccc3c2[nH]1 [Compound 251]	> 100 µM	1 to 20 µM	> 100 µM
Nc1nc2cc(N3CCOCC3)ccc2c2[nH]c(CCCO)nc12 [Compound 168, 3-(4-amino-7-morpholin-4-yl-1H-imidazo[4,5-c]quinolin-2-yl)propan-1-ol]	> 100 µM	> 100 µM	> 100 µM
CS(=O)(=O)N1CCC(c2nc3c(N)nc4cc(-n5cccn5)ccc4c3[nH]2)CC1 [Compound 114]	> 100 µM	1 to 20 µM	> 100 µM

Continued, values first:

EC50 (TLR8)	EC50 (hNLRP3)	EC50 (TLR7)	SMILES
> 100 µM	> 100 µM	> 100 µM	COc1cccc(-c2ccc3c(c2)nc(N)c2nc(CCCO)[nH]c23)c1 [Compound 206, 3-[4-amino-7-(3-methoxyphenyl)-1H-imidazo[4,5-c]quinolin-2-yl]propan-1-ol]
> 100 µM	> 100 µM	> 100 µM	Cc1ccc(-c2ccc3c(c2)nc(N)c2nc(CCCO)[nH]c23)cc1 [Compound 210, 3-[4-amino-7-(4-methylphenyl)-1H-imidazo[4,5-c]quinolin-2-yl]propan-1-ol]
> 100 µM	> 100 µM	> 100 µM	Nc1nc2cc(-c3ccc(Cl)cc3)ccc2c2[nH]c(CCCO)nc12 [Compound 209, 3-[4-amino-7-(4-chlorophenyl)-1H-imidazo[4,5-c]quinolin-2-yl]propan-1-ol]
> 100 µM	≤ 1 µM	20 to 100 µM	CCCc1ccc2c(c1)nc(N)c1nc(CCCO)[nH]c12 [Compound 160, 3-(4-amino-7-propyl-1H-imidazo[4,5-c]quinolin-2-yl)propan-1-ol]
> 100 µM	20 to 100 µM	> 100 µM	Cn1cc(-c2ccc3c(c2)nc(N)c2nc(CCCO)[nH]c23)cn1 [Compound 193, 3-[4-amino-7-(1-methylpyrazol-4-yl)-1H-imidazo[4,5-c]quinolin-2-yl]propan-1-ol]
20 to 100 µM	20 to 100 µM	> 100 µM	Cc1cc2nc(N)c3nc(CCCO)[nH]c3c2cc1F [Compound 128]
> 100 µM	> 100 µM	> 100 µM	Nc1nc2cc(-c3cccc(F)c3)ccc2c2[nH]c(CCCO)nc12 [Compound 208, 3-[4-amino-7-(3-fluorophenyl)-1H-imidazo[4,5-c]quinolin-2-yl]propan-1-ol]
20 to 100 µM	≤ 1 µM	> 100 µM	Nc1nc2cc(-n3cccn3)ccc2c2[nH]c(CCCO)nc12 [Compound 178, 3-(4-amino-7-pyrazol-1-yl-1H-imidazo[4,5-c]quinolin-2-yl)propan-1-ol]
> 100 µM	20 to 100 µM	> 100 µM	Cn1nccc1-c1ccc2c(c1)nc(N)c1nc(CCCO)[nH]c12 [Compound 190, 3-[4-amino-7-(2-methylpyrazol-3-yl)-1H-imidazo[4,5-c]quinolin-2-yl]propan-1-ol]
> 100 µM	≤ 1 µM	> 100 µM	Nc1nc2cc(-c3ccccc3)ccc2c2[nH]c(CCCO)nc12 [Compound 145, 3-(4-amino-7-phenyl-1H-imidazo[4,5-c]quinolin-2-yl)propan-1-ol]
